# Source: patent US8293721B2, “CETP inhibitors derived from benzoxazole arylamides” (Merck Sharpe & Dohme Corp., priority 2007, dated 2012)
# Biological target: T1, recombinant human CETP (Homo sapiens, UniProt P11597)
# T1 construct: made in house; host or cells: CHO cells
# T1 sequence (P11597 18-493): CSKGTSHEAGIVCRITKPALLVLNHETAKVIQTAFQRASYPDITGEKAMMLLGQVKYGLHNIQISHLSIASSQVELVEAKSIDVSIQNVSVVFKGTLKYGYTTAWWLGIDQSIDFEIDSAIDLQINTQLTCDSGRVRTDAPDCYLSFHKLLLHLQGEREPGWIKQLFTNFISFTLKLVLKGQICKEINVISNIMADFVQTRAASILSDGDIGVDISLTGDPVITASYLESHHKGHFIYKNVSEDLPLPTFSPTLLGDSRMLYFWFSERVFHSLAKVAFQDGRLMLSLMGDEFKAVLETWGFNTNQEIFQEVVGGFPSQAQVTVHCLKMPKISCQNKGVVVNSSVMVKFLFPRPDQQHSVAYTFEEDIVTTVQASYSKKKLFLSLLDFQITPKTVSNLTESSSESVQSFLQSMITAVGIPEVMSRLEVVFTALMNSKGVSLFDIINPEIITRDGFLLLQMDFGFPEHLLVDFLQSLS
# Test: In vitro continuous CETP assay, CE transfer reaction (BODIPY-CE donor particles, fluorescence)
# Format: biochemical
# Conditions: 25° C., 3% human serum, stated for the compounds 'or a stereoisomer of the compounds', read-out: IC50 value as measured for the CE transfer reaction
# Description: An in vitro continuous assay for determining IC50's to identify compounds that are CETP inhibitors was performed based on a modification of the method described by Epps et al. employing BODIPY®-CE as the cholesteryl ester lipid donor and BODIPY®-TG as the triglyceride lipid donor. See Epps et al. (1995) Method for measuring the activities of cholesteryl ester transfer protein (lipid transfer protein), Chem. Phys. Lipids. 77, 51-63.
# Particles used in the assay were created from the following materials by probe sonication essentially as described by Epps et al. Synthetic cholesteryl ester (CE) donor HDL particles contained DOPC (Dioleoyl Phosphatidyl Choline), BODIPY®-CE (Molecular Probes C-3927), triolein (a triglyceride), dabcyl dicetylamide, (a non-diffusable quencher molecule to reduce background fluorescence) and apoHDL. Synthetic triglyceride (TG) donor HDL particles contained DOPC, BODIPY®-TG, and apoHDL. BODIPY®-TG was synthesized at room temperature from diolein and the BODIPY containing fatty acid analog 4,4-difluoro-5-(2-thienyl)-4-bora-3a,4a-diaza-s-indacene-3-dodecanoic acid (Molecular Probes) in methylene chloride in the presence of dicyclohexyl carbodimide. Dabcyl dicetylamide was made by heating dabcyl n-succinimide with dicetylamine in DMF at 95° C. overnight in the presence of diisopropylamine catalyst. Native lipoproteins from human blood were used as acceptor particles. Particles having a density less than 1.063 g/ml were collected by ultracentrifugation. These particles include VLDL, IDL, and LDL. Particle concentrations were expressed in terms of protein concentration as determined by BCA assay (Pierce, USA). Particles were stored at 4° C. until use.
# Assays were performed in Dynex Microfluor 2 U-bottom black 96-well plates (Cat #7205). An assay cocktail containing CETP, 1×CETP buffer (50 mM Tris, pH 7.4, 100 mM NaCl, 1 mM EDTA), 3% human serum, and half the final concentration of acceptor particles was prepared, and 100 μL of the assay cocktail was added to each well of the plate. Test compounds in DMSO were added in a volume of 3 μL. The plate was mixed on a plate shaker and then incubated at 25° C. for 1 hour. A second assay cocktail containing donor particles, the remaining acceptor particles and 1×CETP buffer was prepared. 47 μL of the second assay cocktail was added to the reaction wells to start the assay. Assays were performed in a final volume of 150 μL. CE transfer reactions were performed as follows: final concentrations of materials were: 2.5 ng/μL CE donor particles, 7.5 ng/μL acceptor particles (each expressed by protein content), 1×CETP buffer, 14-30 nM recombinant human CETP (expressed in CHO cells and partially purified), and up to 2% DMSO when testing compounds; reactions were followed in a fluorescence plate reader (Molecular Devices Spectramax GeminiXS) set for a 45 minute kinetic run at 25° C. which read the samples every 45 sec at Ex=480 nm, Em=511 nm, with a cutoff filter at 495 nm, photomultiplier tube setting of medium, calibration on, and 6 reads/well. TG transfer reactions were performed as described above with the exception that 2.5 ng/uL TG donor particles were used. TG transfer was measured at an excitation wavelength of 538 nm while reading emission at 568 nm every 45 sec for 45 min at 37° C. with a cutoff filter at 550 nm.
# Data were evaluated by obtaining an initial rate, expressed in relative fluorescence units per second, for the pseudolinear portion of the curve, often 0-500 or 1000 sec. Comparison of the rates of samples with inhibitors to an uninhibited (DMSO only) positive control yielded a percent inhibition. A plot of percent inhibition vs. log of inhibitor concentration, fit to a Sigmoidal 4 parameter equation was used to calculate IC50.
row,SMILES,IC50 [nM]
1,"CC(C)c1cc(C#N)cc2nc(-c3ccc(C(=O)NCC4CN(c5ccc(-c6ccccc6OC(F)(F)F)cn5)C(=O)O4)cc3)oc12 (stereo not shown) [Example 2, 4-(5-Cyano-7-isopropyl-1,3-benzoxazol-2-yl)-N-[(2-oxo-3-{5-[2-(trifluoromethoxy)phenyl]pyridin-2-yl}-1,3-oxazolidin-5-yl)methyl]benzamide]",18 to 100
2,CC(C)COc1ccccc1-c1ccc(N2CC(CNC(=O)c3ccc(-c4nc5cc(C#N)cc(C(C)C)c5o4)cc3)OC2=O)nc1 (stereo not shown) [Example 7],18 to 100
3,COc1cc(F)c(C(C)C)cc1-c1ccc(N2C[C@@H](CNC(=O)c3ccc(-c4nc5cc(C#N)cc(C(C)C)c5o4)cc3)OC2=O)nc1 [Example 31],18 to 100
4,COc1ccccc1-c1ccc(N2C[C@H](CNC(=O)c3ccc(-c4nc5cc(C#N)cc(C(C)C)c5o4)cc3)OC2=O)nc1 [Example 43],18 to 100
5,CC(C)Oc1cccc(F)c1-c1ccc(N2C[C@H](CNC(=O)c3ccc(-c4nc5cc(C#N)cc(C(C)C)c5o4)cc3)OC2=O)nc1 [Example 48],18 to 100

# The remaining lines, values ahead:
row,IC50 [nM],SMILES
1,18 to 100,CC(C)Oc1ccc(F)cc1-c1ccc(N2C[C@@H](CNC(=O)c3ccc(-c4nc5cc(C#N)cc(C(C)C)c5o4)cc3)OC2=O)nc1 [Example 30]
2,18 to 100,"CC(C)c1cc(C#N)cc2nc(-c3ccc(C(=O)NCC4(C)CN(c5ccc(-c6ccccc6OC(F)(F)F)cn5)C(=O)O4)cc3)oc12 (stereo not shown) [Example 51, 4-(5-Cyano-7-isopropyl-1,3-benzoxazol-2-yl)-N-[(5-methyl-2-oxo-3-{5-[2-(trifluoro-methoxy)phenyl]pyridin-2-yl}-1,3-oxazolidin-5-yl)methyl]benzamide]"
3,18 to 100,COc1ccccc1-c1ccc(N2CC(C)(CNC(=O)c3ccc(-c4nc5cc(C#N)cc(C(C)C)c5o4)cc3)OC2=O)nc1 (stereo not shown) [Example 53]
4,18 to 100,CC(C)Oc1ccc(F)cc1-c1ccc(N2CC(C)(CNC(=O)c3ccc(-c4nc5cc(C#N)cc(C(C)C)c5o4)cc3)OC2=O)nc1 (stereo not shown) [Example 54]
5,18 to 100,CC(C)c1cc(C#N)cc2nc(-c3ccc(C(=O)NCC4(C)CN(c5ccc(-c6ccccc6)cn5)C(=O)O4)cc3)oc12 (stereo not shown) [Example 55]
